Like-named read-outs stand apart in the source and are kept apart here.
Tests used:
NDM-1 = NDM-1 (Klebsiella pneumoniae, UniProt C7C422); assay: biochemical; assay type: biochemical; details: fluorescence assay with CCF2-FA substrate; read-out: NDM-1 IC50
[1] = test system: Serratia marcescens expressing IMP-1 (CL5741); assay: Antibiotic potentiation activity: synergistic concentration (MITC95) with imipenem, OD600 growth; assay type: cell-based; details: concentration giving 95% inhibition of bacterial growth
Outline: (§1)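 Each strain, suspended in saline from overnight colonies and diluted 1:100 into 1.1× CAMHB, is dosed with imipenem at 4 μg/ml (or 1 μg/ml) plus compound, incubated 22–24 h at 35 °C and read by absorbance.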

[2] = test system: Escherichia coli expressing NDM-1 (CLB30005); assay: as above; assay type: cell-based; details: concentration giving 95% inhibition of bacterial growth
Outline: as §1

[3] = test system: Klebsiella pneumoniae expressing VIM-1 (IHMA599644); assay: as above; assay type: cell-based; details: concentration giving 95% inhibition of bacterial growth
Outline: as §1

IMP-1 = IMP-1 (Serratia marcescens, UniProt P52699); assay: biochemical; assay type: biochemical; details: fluorescence assay with CCF2-FA substrate; read-out: IMP-1 IC50
VIM-1 = VIM-1 (Pseudomonas aeruginosa (strain ATCC 15692 / DSM 22644 / CIP 104116 / JCM 14847 / LMG 12228 / 1C / PRS 101 / PAO1), UniProt A0A0F7KYQ8); assay: Enzyme activity: determination of IC50, fluorescence assay with CCF2-FA substrate (VIM-1); assay type: biochemical
[4] = fluorescence assay with CCF2-FA substrate, read-out: VIM-1 IC50

NDM-1, sequence (C7C422 whole entry, looked up, species assumed): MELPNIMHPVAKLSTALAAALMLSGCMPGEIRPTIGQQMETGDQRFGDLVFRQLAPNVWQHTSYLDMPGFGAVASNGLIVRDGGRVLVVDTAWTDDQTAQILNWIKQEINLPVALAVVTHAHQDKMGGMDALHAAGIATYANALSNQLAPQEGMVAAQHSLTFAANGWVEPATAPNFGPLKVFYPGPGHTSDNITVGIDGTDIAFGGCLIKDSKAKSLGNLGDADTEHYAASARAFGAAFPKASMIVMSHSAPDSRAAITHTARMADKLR
IMP-1, sequence (P52699 whole entry, looked up): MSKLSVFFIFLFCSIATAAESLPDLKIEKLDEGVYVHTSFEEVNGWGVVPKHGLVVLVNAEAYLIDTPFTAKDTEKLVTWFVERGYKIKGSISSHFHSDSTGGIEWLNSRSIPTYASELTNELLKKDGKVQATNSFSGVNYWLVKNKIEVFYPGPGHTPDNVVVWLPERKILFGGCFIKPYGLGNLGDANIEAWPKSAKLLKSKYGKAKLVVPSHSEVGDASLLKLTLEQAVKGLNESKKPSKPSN

| Compound | IC50 (NDM-1) | Serratia marcescens expressing IMP-1 (CL5741) MITC95 [1] | Escherichia coli expressing NDM-1 (CLB 30005) MITC95 [2] | Klebsiella pneumoniae expressing VIM-1 (IHMA 599644) MITC95 [3] | IC50 (IMP-1) | IC50 (VIM-1; [4]) | IC50 (VIM-1; VIM-1 IC50, fluorescence assay with CCF2-FA substrate) |
| --- | --- | --- | --- | --- | --- | --- | --- |
| NS(=O)(=O)c1cccc(-c2ccc(C(=O)NCCO)cc2)c1-c1nn[nH]n1 [Example 17, N-(2-hydroxyethyl)-3′-sulfamoyl-2′-(2H-tetrazol-5-yl)biphenyl-4-carboxamide] | 8.57 nM | 53.13 µM | 0.7813 µM | 100 µM | 87.5 nM | 209 nM | – |
| NS(=O)(=O)c1cccc(-c2ccc(N3CCCCC3)cc2)c1-c1nn[nH]n1 [Example 18, 4′-piperidin-1-yl-2-(2H-tetrazol-5-yl)biphenyl-3-sulfonamide] | 2.04 nM | 103.1 µM | 3.906 µM | >200 µM | 23.4 nM | – | 326 nM |
| NS(=O)(=O)c1cccc(-c2cccnc2)c1-c1nn[nH]n1 [Example 19, 3-pyridin-3-yl-2-(2H-tetrazol-5-yl)benzenesulfonamide] | 24.5 nM | 50 µM | 0.3906 µM | 50 µM | 1780 nM | 269 nM | – |
| NS(=O)(=O)c1cccc(-c2cccs2)c1-c1nn[nH]n1 [Example 20, 2-(2H-tetrazol-5-yl)-3-thiophen-2-ylbenzenesulfonamide] | 20.4 nM | 18.75 µM | 1.823 µM | 166.7 µM | 331 nM | 362 nM | – |
| NS(=O)(=O)c1cccc(-c2cnc(C3(O)CCC3)s2)c1-c1nn[nH]n1 [Example 21, 3-[2-(1-hydroxycyclobutyl)-1,3-thiazol-5-yl]-2-(2H-tetrazol-5-yl)benzenesulfonamide] | 63.8 nM | 100 µM | 12.89 µM | >200 µM | 2270 nM | 564 nM | – |
| NS(=O)(=O)c1cccc(-c2ccc(C3(C(F)(F)F)OCCO3)nc2)c1-c1nn[nH]n1 [Example 22, 2-(2H-tetrazol-5-yl)-3-{6-[2-(trifluoromethyl)-1,3-dioxolan-2-yl]pyridin-3-yl}benzenesulfonamide] | 2 nM | 6.25 µM | 1.563 µM | 200 µM | 31.8 nM | 26.7 nM | – |
| C[C@H]1NC(=O)O[C@H]1c1ccc(-c2cccc(S(N)(=O)=O)c2-c2nnn[nH]2)cc1 [Example 23, 4′-[(4R,5S)-4-methyl-2-oxo-1,3-oxazolidin-5-yl]-2-(1H-tetrazol-5-yl)biphenyl-3-sulfonamide] | 0.637 nM | 2.344 µM | 2.344 µM | 50 µM | 4.36 nM | 9.76 nM | – |
| NS(=O)(=O)c1cccc(-c2ccc(C(O)C(F)F)cc2)c1-c1nnn[nH]1 (stereo not drawn) [Example 24, 4′-(2,2-difluoro-1-hydroxyethyl)-2-(1H-tetrazol-5-yl)biphenyl-3-sulfonamide] | 3.65 nM | 3.125 µM | 1.563 µM | 150 µM | 17.8 nM | 124 nM | – |
| N#CC1(c2ccc(-c3cccc(S(N)(=O)=O)c3-c3nnn[nH]3)cc2)CCOCC1 [Example 25, 4′-(4-cyanotetrahydro-2H-pyran-4-yl)-2-(1H-tetrazol-5-yl)biphenyl-3-sulfonamide] | < 0.637 nM | 12.5 µM | 3.125 µM | >200 µM | 3.6 nM | 45.5 nM | – |
| NS(=O)(=O)c1cccc(-c2ccc(C3CCNC3=O)cc2)c1-c1nnn[nH]1 (stereo not drawn) [Example 27, 4′-(2-oxopyrrolidin-3-yl)-2-(1H-tetrazol-5-yl)biphenyl-3-sulfonamide] | 2.23 nM | 3.125 µM | 3.125 µM | 200 µM | 13.1 nM | 77.1 nM | – |
| COC(=O)N1CCC(c2ccc(-c3cccc(S(N)(=O)=O)c3-c3nnn[nH]3)cc2)CC1 [Example 28, methyl 4-[3′-sulfamoyl-2′-(1H-tetrazol-5-yl)biphenyl-4-yl]piperidine-1-carboxylate] | 0.972 nM | 12.5 µM | 12.5 µM | >200 µM | 3.74 nM | 26.7 nM | – |
| C[C@@H]1NC(=O)O[C@H]1c1ccc(-c2cccc(S(N)(=O)=O)c2-c2nnn[nH]2)cc1 [Example 29, 4′-[(4S,5S)-4-methyl-2-oxo-1,3-oxazolidin-5-yl]-2-(1H-tetrazol-5-yl)biphenyl-3-sulfonamide] | 1.49 nM | 6.25 µM | 3.125 µM | 200 µM | 12.1 nM | 52.8 nM | – |
| Cc1csc(-c2cccc(S(N)(=O)=O)c2-c2nn[nH]n2)n1 [Example 34, 3-(4-methyl-1,3-thiazol-2-yl)-2-(2H-tetrazol-5-yl)benzenesulfonamide] | 151 nM | 150 µM | 3.125 µM | >200 µM | 3090 nM | 1440 nM | – |
| NS(=O)(=O)c1cccc(-c2cccc(F)n2)c1-c1nn[nH]n1 [Example 36, 3-(6-fluoropyridin-2-yl)-2-(2H-tetrazol-5-yl)benzenesulfonamide] | 38.7 nM | 50 µM | 1.953 µM | 75 µM | 790 nM | 219 nM | – |
| COc1cccc(-c2cccc(S(N)(=O)=O)c2-c2nn[nH]n2)n1 [Example 37, 3-(6-methoxypyridin-2-yl)-2-(2H-tetrazol-5-yl)benzenesulfonamide] | 26.4 nM | 50 µM | 2.344 µM | 200 µM | 1210 nM | 206 nM | – |
| COc1cncc(-c2cccc(S(N)(=O)=O)c2-c2nn[nH]n2)n1 [Example 40, 3-(6-methoxypyrazin-2-yl)-2-(2H-tetrazol-5-yl)benzenesulfonamide] | 42.2 nM | 200 µM | 3.125 µM | 200 µM | 3050 nM | 560 nM | – |
| NS(=O)(=O)c1cccc(-c2ccco2)c1-c1nn[nH]n1 [Example 41, 3-furan-2-yl-2-(2H-tetrazol-5-yl)benzenesulfonamide] | 30.4 nM | 9.375 µM | 0.3906 µM | 200 µM | 247 nM | 1150 nM | – |
| NS(=O)(=O)c1cccc(-c2cncs2)c1-c1nn[nH]n1 [Example 44, 2-(2H-tetrazol-5-yl)-3-(1,3-thiazol-5-yl)benzenesulfonamide] | 34.6 nM | 12.5 µM | 0.3906 µM | 37.5 µM | 293 nM | 294 nM | – |

From US9708336B2, “Metallo-beta-lactamase inhibitors” (priority 2014, dated 2017)
